In one data set the test system is human thrombi. Put plainly: Ex vivo blood flow model: binding to human thrombi, incl. competition with cold compound. Particulars: ± SEM; for in vitro clot-to-blood ratio / Accumulation Thrombus: 3 minutes post-injection of 18F-labeled compound; for Accumulation Thrombus: without cold compound; for Thrombus competition: cold compound added with hot compound, final plasma concentration 2.8 μM, 3 minutes. An excerpt: The binding of compounds to thrombi was further investigated in an ex vivo blood flow model similar to that described in “Wakhloo, A. K. et al. Thrombus and stroke 2008, in vitro models 57-66” but modified with regard to thrombus development. Briefly, an open handmade tube-set consisting of tygon-tubes (Tygon R-1000, part N^O AAU00007: I.D. 3.2 mm, O.D. 6.4 mm, Saint Gobain Performance Plastics North America), intermediate tubes (Intrafix® Infusion set, B. Braun, Melsungen, Germany) an open reservoir (10 mL Combitip, Eppendorf) and a chamber made of a piece of polyethylene-Tube, ([…] Polyethylene Tubing, Clay Adams, PE160, length: 6.5 cm) containing a loop of a roughened thread (fishing line: Okuma UltraMax whitefish, diameter: 0.14 mm, length: 5 cm; sandpaper: CAMI Grit designation: 600, CP918a, VSM) was used for thrombus formation. The connection between the intermediate tube and the thrombus chamber was made by trimmed tips (epTIPS, 200 μL, Eppendorff, Hamburg/Germany). The Reservoir and the thrombus chamber were fixed by clamps and stands. A peristaltic-pump (Minipuls 3, Gilson, Middelton/USA) was used to pump the blood around thereby adjusting the flow in the middle of the thrombus chamber to 70-90 cm per second, which was monitored by ultrasound Doppler measurement (Vevo 770 High-Resolution In Vivo Micro-Imaging System, VisualSonics, TorontoOntario, Canada; Scanhead: RMV 704, 40 MHz). The volume of the entire tube-set was 7.5 or 15 mL.
For each experiment fresh blood was taken from a volunteer using 10 mL citrate-tubes (Sarstedt S-Monovette 02.1067.001, 10 mL, Citrate 3.13%) and immediately laid into the turning-device of an incubator at a temperature of 37° C. (Heraeus miniTherm CTT with integrated rotation- and turning device, turning speed: 19 rotations per minute, Heraeus Instruments GmbH, Hanau/Germany). As needed, two tubes were taken out of the turning-device and 15 mL were transferred to a 20 mL Syringe (Omnifix®, B. Braun, Melsungen/Germany) and gently mixed with 0.75 mL CaCl2-Solution before the peristaltic pump was started and the whole content of the syringe was transferred into the reservoir of the tube-set via a cell strainer (BD Falcon™ cell strain, 40 μm, BD, Franklin Lakes, N.J. USA). After 7 minutes 1 MBq or 0.5 MBq (15 mL or 7.5 mL) of the compound was added to the reservoir by means of a pipette, thereby mixing the content gently with the tip of the pipette. The blood was left circulating for another 3 minutes. Then, the pump was stopped, aliquots were taken from the blood and the thrombus together with the roughened thread was removed from the thrombus-chamber before both was weighted and measured in a gamma counter (Automatic Gamma Counter Wizard^2 3, Perkin Elmer). Then the thrombus together with the thread was incubated in Plasmin-solution (Plasmin from Human Plasma, Sigma Aldrich, stock-solution: 500 μg in 500 μL 150 μM Tris-buffer (pH 7.8), 20 μL stock-solution to 230 μL saline solution 0.9%) for 48 hours to separate the platelets from the thread and to determine the netto weight of the thrombus. Finally the activity of the compound in blood and thrombus as well as the ratio between both was determined (cpm/weight [mg]).
To verify the specificity of the compound, a competition experiment was conducted in which the cold compound was added to the reservoir together with the hot compound. The final plasma concentration of the cold compound was 2.8 μM.

The target in data set [1] is human GPIIb/IIIa receptor (Homo sapiens (Human), UniProt P05106+P08514). Briefly: Affinity assay: displacement of tritiated reference compound from immobilized purified GPIIb/IIIa. The data set is classed as binding. The protocol:
Affinity assay: In the first step human GPIIb/IIIa purified from human platelets was immobilized on a 96-well solid plate. After 48 hours the plates were washed and the unspecific binding sites were blocked with Roti®-Block. 2. In the next step, the plates were simultaneously incubated with a tritium labeled known GPIIb/IIIa binder (^3H) mixed with increasing concentrations of the novel small molecule compounds (inhibitor, ^19F). The higher the affinity of the inhibitor, the lower the bound fraction of the tritiated known GPIIb/IIIa binder (^3H) was. The fraction of tritiated compound (^3H), which is not displaced by inhibitor, was measured in a microplate scintillation counter.
Purified human glycoprotein IIb/IIIa (20 mM Tris-HCl, 0.1 M NaCl, 0.1% Triton X-100, 1 mM CaCl2, 0.05% NaN3, 50% Glycerol, pH 7.4) was purchased from Enzyme Research Laboratories Inc. (South Bend, Ind.). The GPIIb/IIIa receptor was diluted in phosphate-buffered saline (Dulbecco's Phosphate Buffered Saline (D-PBS(+)) with calcium and magnesium, GIBCO®, Invitrogen) with 0.01% bovine serum albumin (albumin from bovine serum—lyophilized powder, ≧96%, Sigma).
The GPIIb/IIIa receptor was immobilized 48 hours at least (100 μL per well, 48 to maximum 96 hours) on a 96-well solid plate (Immuno Plate MaxiSorp™, Nunc, Roskilde, Denmark) at 277 K to 280 K and at a concentration of 0.1 μg per well to 1 μg per well. As negative control one row of the plate (n=8) was incubated just with 2% bovine serum albumin (200 μper well, albumin from bovine serum—lyophilized powder, […], Sigma, diluted in D-PBS(+)). After washing three times with the wash buffer (230 μL per well, Dulbecco's Phosphate Buffered Saline (D-PBS (−)) contains no calcium or magnesium, GIBCO®, Invitrogen) residual exposed plastic and unspecific binding sites were blocked by incubating the plate with a special blocking solution (200 μL per well, Roti®-Block, Carl Roth GmbH Co KG, Karlsruhe) containing 2% bovine serum albumin (Albumin from bovine serum—lyophilized powder, ≧96%, Sigma) 1 hour at room temperature.
After washing three times with the wash buffer 50 μL of tritiated reference compound (60 nM, ^3H-labeled compound) and 50 μL of novel compound (inhibitor, ^19F) were simultaneously added to each well and incubated for 1 hour at room temperature. Several concentrations of each novel inhibitor (0.1, 1, 2, 5, 10, 20 50, 100, 200, 500, 1000, 2000, 5000, 10000 and 20000 nM) were investigated. At each concentration of inhibitor a fourfold determination was performed.
The maximum value of tritiated reference compound was determined without addition of inhibitor (n=8). To exclude unspecific binding of ^3H-reference compound wells without glycoprotein receptors were used as negative controls (n=12, identically treated just without GP IIb/IIIa receptors).
After one hour the plate was washed three times with phosphate-buffered saline (200 μL per well, Dulbecco's Phosphate Buffered Saline (D-PBS(+)), GIBCO®, Invitrogen). Following 140 μL of liquid scintillation cocktail (MicroScint™ 40 aqueous, Perkin Elmer) was added to each well. After 15 min at room temperature the plates were measured at the microplate scintillation counter (TopCount NXT v2.13, Perkin Elmer, Packard Instrument Company).
In the first step human glycoprotein IIb/IIIa, which is purified from human platelets, was immobilized on a 96-well solid plate. After 48 hours at least the plates were washed and the unspecific binding sites were blocked with Roti®-Block. In the next step, the plates were simultaneously incubated with a tritium labeled reference compound and the novel small molecule compound (inhibitor). The higher the affinity of the inhibitor, the smaller is the bound fraction of reference compound. The fraction of tritiated reference compound, which is not displaced by inhibitor, was measured at a microplate scintillation counter.

A short description of data set [2]: Plasma protein binding by equilibrium dialysis, monkey plasma. The class given is in vitro ADME. The note with it: plasma (10% in buffer), Cynomolgus, read-out: Fu (Mari). Here is the method:
(§1) The determination of the plasma protein binding of compounds was performed by means of an equilibrium dialysis in a 96-well HT plate. Solutions of test compound (0.3 μM and 3 μM) were prepared in buffer (50 mM phosphate buffer) and 10% plasma. A 96 well HT dialysis plate (Teflon) was assembled so that each well was divided in two compartments by a semi-permeable cellulose membrane (regenerated Cellulose, MWCO 12-14K). The phosphate buffer solution (150 μL) was added to one side of the membrane and the plasma solution to the other side (150 μL). The compounds were added to the plasma solution side and were incubated at 37 degree. The unbound fraction of the compound could pass through the membrane and equilibrium between the two sides could be reached (6-8 h, 37° C.). Both solutions were analyzed for each compound (plasma-free and plasma-containing) by LC-MS. Both solutions for each compound were diluted with buffer or plasma to reach the same matrix (10% plasma) for analysis and were precipitated by the addition of methanol. The fraction unbound (Fu) was calculated as the quotient of the equilibrium concentrations of the compound in plasma-free and plasma-containing solution.

Data set [3] in a line: Plasma protein binding by equilibrium dialysis, human plasma. The data set is classed as in vitro ADME. The note with it: plasma (10% in buffer), Caucasian, read-out: Fu (Mari). The protocol: as §1
(In general: In equilibrium dialysis only unbound substance equilibrates across the membrane.)

Read-outs that look alike come from different tables or passages of the source.

Sequence of human GPIIb/IIIa receptor (P08514 32-887): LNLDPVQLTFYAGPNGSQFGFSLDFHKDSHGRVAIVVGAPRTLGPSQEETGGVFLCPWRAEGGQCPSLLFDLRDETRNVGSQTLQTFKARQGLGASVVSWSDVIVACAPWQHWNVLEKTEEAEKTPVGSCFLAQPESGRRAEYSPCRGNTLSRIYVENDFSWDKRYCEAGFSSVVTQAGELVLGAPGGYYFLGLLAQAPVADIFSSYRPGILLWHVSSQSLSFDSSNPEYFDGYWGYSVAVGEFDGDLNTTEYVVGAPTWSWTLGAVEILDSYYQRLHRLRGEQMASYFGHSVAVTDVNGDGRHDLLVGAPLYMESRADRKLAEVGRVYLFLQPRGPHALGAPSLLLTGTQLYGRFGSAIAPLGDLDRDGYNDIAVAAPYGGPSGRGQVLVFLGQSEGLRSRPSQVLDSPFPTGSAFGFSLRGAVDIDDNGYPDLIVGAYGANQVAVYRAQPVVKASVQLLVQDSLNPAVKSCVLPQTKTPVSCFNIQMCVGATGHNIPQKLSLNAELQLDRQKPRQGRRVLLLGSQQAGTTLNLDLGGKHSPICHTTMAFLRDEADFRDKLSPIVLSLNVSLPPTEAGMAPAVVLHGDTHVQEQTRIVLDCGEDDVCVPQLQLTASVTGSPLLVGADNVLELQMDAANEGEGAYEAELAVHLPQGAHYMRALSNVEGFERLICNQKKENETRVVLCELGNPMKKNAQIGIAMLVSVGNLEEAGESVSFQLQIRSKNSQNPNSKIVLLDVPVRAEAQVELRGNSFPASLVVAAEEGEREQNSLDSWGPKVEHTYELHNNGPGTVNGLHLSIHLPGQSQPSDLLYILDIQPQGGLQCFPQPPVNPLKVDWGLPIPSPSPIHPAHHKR
Sequence of human GPIIb/IIIa receptor (P08514 891-1039 partner): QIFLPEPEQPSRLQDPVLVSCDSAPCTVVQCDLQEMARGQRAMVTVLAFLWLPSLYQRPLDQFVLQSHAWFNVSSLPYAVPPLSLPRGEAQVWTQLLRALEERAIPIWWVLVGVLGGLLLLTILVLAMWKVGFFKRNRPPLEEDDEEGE
Sequence of human GPIIb/IIIa receptor (P05106 27-788): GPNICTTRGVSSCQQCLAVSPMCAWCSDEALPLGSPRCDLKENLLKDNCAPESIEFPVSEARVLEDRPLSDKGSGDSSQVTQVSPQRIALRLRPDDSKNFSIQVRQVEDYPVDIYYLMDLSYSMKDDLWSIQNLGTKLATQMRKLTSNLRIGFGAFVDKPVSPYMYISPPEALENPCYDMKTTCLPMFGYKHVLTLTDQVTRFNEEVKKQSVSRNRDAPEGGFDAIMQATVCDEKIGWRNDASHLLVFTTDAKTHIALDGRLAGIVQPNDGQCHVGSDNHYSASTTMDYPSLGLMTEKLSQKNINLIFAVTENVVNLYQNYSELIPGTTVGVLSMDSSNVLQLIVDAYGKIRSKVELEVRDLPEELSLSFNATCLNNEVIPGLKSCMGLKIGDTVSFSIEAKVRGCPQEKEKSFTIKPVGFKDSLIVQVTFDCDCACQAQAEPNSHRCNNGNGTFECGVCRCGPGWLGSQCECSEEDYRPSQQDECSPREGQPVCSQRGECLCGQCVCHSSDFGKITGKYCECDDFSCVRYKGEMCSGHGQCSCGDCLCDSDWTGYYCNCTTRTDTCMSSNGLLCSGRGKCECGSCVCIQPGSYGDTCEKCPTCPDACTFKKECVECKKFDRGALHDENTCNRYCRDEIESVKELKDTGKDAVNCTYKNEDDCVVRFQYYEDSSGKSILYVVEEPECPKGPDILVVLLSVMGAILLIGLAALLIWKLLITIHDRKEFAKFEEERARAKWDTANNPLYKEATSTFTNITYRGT

`O=C(O)C[C@H](NC(=O)[C@@H]1CCCN(C(=O)CCC2CCNCC2)C1)c1ccc(OCC[18F])cc1` [Example 39, (3S)-3-[4-(2-[^18F]Fluoroethoxy)phenyl]-3-[({(3R)-1-[3-(piperidin-4-yl)propanoyl]piperidin-3-yl}carbonyl)amino]propanoic acid]: in the data set with human thrombi, the “in vitro clot-to-blood ratio” value is on record as 34 ± 4 (n = 4), the “Accumulation Thrombus” value is 86 ± 9 (n = 6) 10^3 cpm/mg and the Thrombus competition was 12 ± 1 (n = 6) 10^3 cpm/mg.

On to `O=C(O)C[C@H](NC(=O)[C@@H]1CCCN(C(=O)CCC2CCNCC2)C1)c1cncc(CCc2ccc(OCC[18F])cc2)c1` [Example 46, (3S)-3-(5-{2-[4-(2-[^18F]Fluoroethoxy)phenyl]ethyl}pyridin-3-yl)-3-[({(3R)-1-[3-(piperidin-4-yl)propanoyl]piperidin-3-yl}carbonyl)amino]propanoic acid], for which, in the data set with human thrombi, the “in vitro clot-to-blood ratio” value is 191 ± 30 (n = 4), the “Accumulation Thrombus” value is 285 ± 76 (n = 4) 10^3 cpm/mg and the Thrombus competition is on record as 17 ± 1 (n = 4) 10^3 cpm/mg.

With `O=C(O)C[C@H](NC(=O)[C@@H]1CCCN(C(=O)CCC2CCNCC2)C1)c1cncc(CCc2cccc(OCC[18F])c2)c1` [Example 47, (3S)-3-(5-{2-[3-(2-[^18F]Fluoroethoxy)phenyl]ethyl}pyridin-3-yl)-3-[({(3R)-1-[3-(piperidin-4-yl)propanoyl]piperidin-3-yl}carbonyl)amino]propanoic acid], in the data set on human thrombi, the “in vitro clot-to-blood ratio” value was 178 ± 48 (n = 4), the “Accumulation Thrombus” value is listed as 258 ± 59 (n = 4) 10^3 cpm/mg and the Thrombus competition is recorded as 14 ± 2 (n = 3) 10^3 cpm/mg.

In the case of `O=C(O)C[C@H](NC(=O)[C@@H]1CCCN(C(=O)CCC2CCNCC2)C1)c1cncc(-c2ccc(OCCF)cc2)c1` [Example 7, (3S)-3-{5-[4-(2-Fluoroethoxy)phenyl]pyridin-3-yl}-3-[({(3R)-1-[3-(piperidin-4-yl)propanoyl]piperidin-3-yl}carbonyl)amino]propanoic acid], the IC50 is 11 nM in data set [1] (19F compounds vs 60 nM 3H-labeled reference compound, 1 hour at room temperature, read-out: IC50 human) and 11 nM in data set [1] (values repeated beside the 18F-compound, read-out: IC50 human (corresponding 19F-compound, Table 2)). Also, the values for the fraction unbound at 0.3 μM in data set [2] (0.3 μM) and in data set [3] (0.3 μM) were 0.54 and 0.5, respectively. Further, the results for the fraction unbound at 3 μM in data set [2] (3 μM) and in data set [3] (3 μM) were 0.58 and 0.54, respectively.

`O=C(O)C[C@H](NC(=O)[C@@H]1CCCN(C(=O)CCC2CCNCC2)C1)c1cccc(OCC[18F])c1` [Example 38, (3S)-3-[3-(2-[^18F]Fluoroethoxy)phenyl]-3-[({(3R)-1-[3-(piperidin-4-yl)propanoyl]piperidin-3-yl}carbonyl)amino]propanoic acid]: in the data set with human thrombi, the “in vitro clot-to-blood ratio” value is given as 19 ± 1 (n = 9), the “Accumulation Thrombus” value is 41 ± 3 (n = 5) 10^3 cpm/mg and the Thrombus competition is 10 ± 1 (n = 5) 10^3 cpm/mg.

Regarding `N#Cc1cc(-c2cncc([C@H](CC(=O)O)NC(=O)[C@@H]3CCCN(C(=O)CCC4CCNCC4)C3)c2)ccc1[18F]` [Example 42, (3S)-3-[5-(3-Cyano-4-[^18F]fluorophenyl)pyridin-3-yl]-3-[({(3R)-1-[3-(piperidin-4-yl)propanoyl]piperidin-3-yl}carbonyl)amino]propanoic acid], in the data set on human thrombi, the “in vitro clot-to-blood ratio” value is on record as 58 ± 10 (n = 6), the “Accumulation Thrombus” value was 39 ± 5 (n = 6) 10^3 cpm/mg and the Thrombus competition is recorded as 5 ± 1 (n = 6) 10^3 cpm/mg.

One may read the IC50 as the point on the concentration scale where inhibition reaches its midpoint.

The values are drawn from US9345793B2, “Compounds for binding to the platelet specific glycoprotein IIB/IIIA and their use for imaging of thrombi” (PIRAMAL IMAGING SA, priority 2011, dated 2016).
